Data as given in PubChem BioAssay AID192 (DTP/NCI, 2004).
Several values for one entry are separate records, joined by “and”; a condition that tells them apart may be missing. Equal entries are not always repeated. Toxic doses and inconclusive results are not listed.

Tested on: BDF1 mice, B16 melanoma ip, median survival T/C
Assay: NCI In Vivo Anticancer Drug Screen. Data for tumor model B16 Melanoma (intraperitoneal) in B6D2F1 (BDF1) mice
Conditions: endpoint: median survival time, higher = longer survival
Method in brief: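 Vehicle-treated animals serve as the reference (C); treated animals (T) are scored for survival or tumor size after tumor transplantation.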

[1] = dose: 50.0 mg/kg/injection, schedule: Q01DX009 (ip), vehicle: saline with Tween-80
[2] = dose: 100.0 mg/kg/injection, schedule: Q01DX009 (ip), vehicle: saline with Tween-80
[3] = dose: 200.0 mg/kg/injection, schedule: Q01DX009 (ip), vehicle: saline with Tween-80
[4] = dose: 1.56 mg/kg/injection, schedule: Q01DX009 (ip), vehicle: saline with Tween-80
[5] = dose: 6.25 mg/kg/injection, schedule: Q01DX009 (ip), vehicle: saline
[6] = dose: 100.0 mg/kg/injection, schedule: Q01DX009 (ip), vehicle: Klucel (hydroxypropylcellulose) (HPC)
[7] = dose: 200.0 mg/kg/injection, schedule: Q01DX009 (ip), vehicle: Klucel (hydroxypropylcellulose) (HPC)
[8] = dose: 400.0 mg/kg/injection, schedule: Q01DX009 (ip), vehicle: Klucel (hydroxypropylcellulose) (HPC)
[9] = dose: 25.0 mg/kg/injection, schedule: Q01DX009 (ip), vehicle: Klucel (hydroxypropylcellulose) (HPC)
[10] = dose: 50.0 mg/kg/injection, schedule: Q01DX009 (ip), vehicle: Klucel (hydroxypropylcellulose) (HPC)
[11] = dose: 1.0 mg/kg/injection, schedule: Q01DX009 (ip), vehicle: saline with Tween-80
[12] = dose: 2.0 mg/kg/injection, schedule: Q01DX009 (ip), vehicle: saline with Tween-80
[13] = dose: 3.12 mg/kg/injection, schedule: Q01DX009 (ip), vehicle: saline with Tween-80
[14] = dose: 6.25 mg/kg/injection, schedule: Q01DX009 (ip), vehicle: saline with Tween-80
[15] = dose: 12.5 mg/kg/injection, schedule: Q01DX009 (ip), vehicle: saline with Tween-80

Cc1ccc(Cl)cc1NC(=O)c1ccc(Cl)cc1Cl
T/C (dose: 100.0 mg/kg/injection, schedule: Q04DX003 (ip), vehicle: Klucel (hydroxypropylcellulose) (HPC)): 95 % of control
T/C (dose: 200.0 mg/kg/injection, schedule: Q04DX003 (ip), vehicle: Klucel (hydroxypropylcellulose) (HPC)): 102 % of control

CC1(c2ccccc2)C(C#N)C(=O)NC(=O)C1C#N (stereo unspecified)
T/C [1]: 89 % of control
T/C [2]: 89 % of control
T/C [3]: 89 % of control

C=COCC(C)C (tested in a mixture with another compound)
T/C (dose: 0.39 mg/kg/injection, schedule: Q01DX009 (ip), vehicle: saline): 108 % of control
T/C (dose: 0.78 mg/kg/injection, schedule: Q01DX009 (ip), vehicle: saline): 100 % of control
T/C [4]: 88 % of control
T/C (dose: 1.56 mg/kg/injection, schedule: Q01DX009 (ip), vehicle: saline): 88 % of control and 94 % of control
T/C (dose: 3.13 mg/kg/injection, schedule: Q01DX009 (ip), vehicle: saline): 89 % of control
T/C [5]: 86 % of control

CC(=O)CC(=O)N1CCCC(C)C1 (stereo unspecified)
T/C [6]: 116 % of control
T/C [7]: 109 % of control
T/C [8]: 110 % of control

CCCN(CCC)C(=O)c1cccnc1
T/C (dose: 100.0 mg/kg/injection, schedule: Q01DX009 (ip), vehicle: saline): 102 % of control
T/C (dose: 200.0 mg/kg/injection, schedule: Q01DX009 (ip), vehicle: saline): 106 % of control
T/C (dose: 400.0 mg/kg/injection, schedule: Q01DX009 (ip), vehicle: saline): 113 % of control

CC1C2CCC(C2)C1C(=O)O (stereo unspecified)
T/C (dose: 100.0 mg/kg/injection, schedule: Q04DX003 (ip), vehicle: other): 102 % of control
T/C (dose: 200.0 mg/kg/injection, schedule: Q04DX003 (ip), vehicle: other): 102 % of control
T/C (dose: 400.0 mg/kg/injection, schedule: Q04DX003 (ip), vehicle: other): 89 % of control

Nc1nc(O)c(CC(=O)O)s1
T/C (dose: 12.5 mg/kg/injection, schedule: Q01DX009 (ip), vehicle: Klucel (hydroxypropylcellulose) (HPC)): 88 % of control
T/C [9]: 91 % of control
T/C [10]: 95 % of control

CC1CCC2(OC1)OC1CC3C4CCC5CC(O)CCC5(C)C4CCC3(C)C1C2C (stereo unspecified)
T/C (dose: 10.0 mg/kg/injection, schedule: Q01DX009 (ip), vehicle: Klucel (hydroxypropylcellulose) (HPC)): 99 % of control
T/C (dose: 20.0 mg/kg/injection, schedule: Q01DX009 (ip), vehicle: Klucel (hydroxypropylcellulose) (HPC)): 97 % of control
T/C (dose: 40.0 mg/kg/injection, schedule: Q01DX009 (ip), vehicle: Klucel (hydroxypropylcellulose) (HPC)): 95 % of control

Cc1cc(=O)[nH]c(N/N=C/c2ccccc2O)n1
T/C [9]: 93 % of control
T/C [10]: 87 % of control
T/C [6]: 87 % of control
T/C [7]: 87 % of control

CCCCOB=O
T/C [1]: 95 % of control
T/C [2]: 99 % of control
T/C [3]: 89 % of control

CCOC(=O)C(=CNc1cccc(N)n1)C(=O)OCC
T/C [6]: 107 % of control
T/C [7]: 111 % of control
T/C [8]: 94 % of control

CN(C)CCC(=O)c1ccccc1
T/C [5]: 105 % of control
T/C (dose: 12.5 mg/kg/injection, schedule: Q01DX009 (ip), vehicle: saline): 105 % of control

O=[N+]([O-])c1ccc(Cl)c([N+](=O)[O-])c1
T/C (dose: 5.0 mg/kg/injection, schedule: Q01DX009 (ip), vehicle: saline with Tween-80): 100 % of control and 112 % of control
T/C (dose: 10.0 mg/kg/injection, schedule: Q01DX009 (ip), vehicle: saline with Tween-80): 94 % of control and 99 % of control
T/C (dose: 20.0 mg/kg/injection, schedule: Q01DX009 (ip), vehicle: saline with Tween-80): 99 % of control and 102 % of control
T/C (dose: 40.0 mg/kg/injection, schedule: Q01DX009 (ip), vehicle: saline with Tween-80): 98 % of control and 107 % of control
T/C (dose: 80.0 mg/kg/injection, schedule: Q01DX009 (ip), vehicle: saline with Tween-80): 100 % of control and 108 % of control

C=C(C)C12OC3(/C=C/C=C/CCCCC)OC1C1C4OC4(CO)C(O)C4(O)C(=O)C(C)=CC4C1(O3)C(C)C2OC(=O)c1ccccc1 (stereo unspecified)
T/C (dose: 0.5 micrograms/kg/injection, schedule: Q01DX009 (ip), vehicle: saline): 104 % of control
T/C (dose: 1.0 micrograms/kg/injection, schedule: Q01DX009 (ip), vehicle: saline): 104 % of control
T/C (dose: 1.9 micrograms/kg/injection, schedule: Q01DX009 (ip), vehicle: saline): 105 % of control
T/C (dose: 3.8 micrograms/kg/injection, schedule: Q01DX009 (ip), vehicle: saline): 104 % of control
T/C (dose: 7.5 micrograms/kg/injection, schedule: Q01DX009 (ip), vehicle: saline): 97 % of control
T/C (dose: 15.0 micrograms/kg/injection, schedule: Q01DX009 (ip), vehicle: saline): 104 % of control
T/C (dose: 30.0 micrograms/kg/injection, schedule: Q01DX009 (ip), vehicle: saline): 98 % of control

Cc1nc(N)nc(N)c1-c1ccc(Cl)c(Cl)c1
T/C (dose: 0.25 mg/kg/injection, schedule: Q01DX009 (ip), vehicle: saline with Tween-80): 104 % of control
T/C (dose: 0.5 mg/kg/injection, schedule: Q01DX009 (ip), vehicle: saline with Tween-80): 102 % of control
T/C (dose: 0.62 mg/kg/injection, schedule: Q01DX009 (ip), vehicle: saline): 102 % of control
T/C (dose: 0.75 mg/kg/injection, schedule: Q01DX009 (ip), vehicle: saline with Tween-80): 115 % of control
T/C [11]: 100 % of control
T/C (dose: 1.0 mg/kg/injection, schedule: Q02DX009 (ip), vehicle: Klucel (hydroxypropylcellulose) (HPC)): 98 % of control
T/C (dose: 1.0 mg/kg/injection, schedule: Q02DX009 (ip), vehicle: saline with Tween-80): 113 % of control
T/C (dose: 1.25 mg/kg/injection, schedule: Q01DX009 (ip), vehicle: saline): 107 % of control
T/C (dose: 1.5 mg/kg/injection, schedule: Q04DX003 (ip), vehicle: saline with Tween-80): 90 % of control
T/C [12]: 120 % of control
T/C (dose: 2.0 mg/kg/injection, schedule: Q02DX009 (ip), vehicle: Klucel (hydroxypropylcellulose) (HPC)): 100 % of control
T/C (dose: 2.0 mg/kg/injection, schedule: Q02DX009 (ip), vehicle: saline with Tween-80): 119 % of control
T/C (dose: 3.0 mg/kg/injection, schedule: Q01DX009 (ip), vehicle: saline with Tween-80): 112 % of control
T/C (dose: 3.0 mg/kg/injection, schedule: Q04DX003 (ip), vehicle: saline with Tween-80): 90 % of control
T/C (dose: 4.0 mg/kg/injection, schedule: Q02DX009 (ip), vehicle: Klucel (hydroxypropylcellulose) (HPC)): 100 % of control
T/C (dose: 4.0 mg/kg/injection, schedule: Q04DX003 (ip), vehicle: saline with Tween-80): 96 % of control
T/C (dose: 6.0 mg/kg/injection, schedule: Q04DX003 (ip), vehicle: saline with Tween-80): 102 % of control
T/C (dose: 8.0 mg/kg/injection, schedule: Q02DX009 (ip), vehicle: Klucel (hydroxypropylcellulose) (HPC)): 121 % of control
T/C (dose: 8.0 mg/kg/injection, schedule: Q04DX003 (ip), vehicle: saline with Tween-80): 97 % of control
T/C (dose: 10.0 mg/kg/injection, schedule: Q04DX003 (ip), vehicle: saline with Tween-80): 93 % of control

N#C[CH2][Sn]([I])([c]1ccccc1)[c]1ccccc1
T/C [13]: 93 % of control
T/C [14]: 87 % of control
T/C [15]: 86 % of control

COc1ccc(CC2C(=O)NC(C)C(=O)N(C)C3C(=O)N(C)C(Cc4ccc(O)c(c4)Oc4ccc(cc4)C3O)C(=O)NC(C)C(=O)NC(C)C(=O)N2C)cc1 (stereo unspecified) (tested in a mixture with another compound)
T/C (dose: 0.12 mg/kg/injection, schedule: Q01DX009 (ip), vehicle: other): 97 % of control
T/C (dose: 0.25 mg/kg/injection, schedule: Q01DX009 (ip), vehicle: other): 109 % of control
T/C (dose: 0.5 mg/kg/injection, schedule: Q01DX009 (ip), vehicle: other): 161 % of control
T/C (dose: 1.0 mg/kg/injection, schedule: Q01DX009 (ip), vehicle: other): 152 % of control
T/C [11]: 154 % of control
T/C [12]: 157 % of control
T/C (dose: 250.0 micrograms/kg/injection, schedule: Q01DX009 (ip), vehicle: saline): 152 % of control
T/C (dose: 2000.0 micrograms/kg/injection, schedule: Q01DX009 (ip), vehicle: saline): 154 % of control

O=C1NC(c2ccccc2)N=C2Oc3ccccc3C=C12 (stereo unspecified)
T/C [4]: 107 % of control
T/C [13]: 109 % of control and 113 % of control
T/C [14]: 108 % of control and 117 % of control
T/C [15]: 117 % of control
T/C (dose: 25.0 mg/kg/injection, schedule: Q01DX009 (ip), vehicle: saline with Tween-80): 117 % of control
